Here are results for one compound from US7279187B2, “Mineral fortification systems” (The Procter & Gamble Company, priority 2003, dated 2007).

This series in a line: Colour development of iron source when added to water or other aqueous solutions. It counts as physicochemical. From the text: Such a color can change the color appearance the food or beverage to which FERROCHEL has been added. In the case of many foods and beverages, this color change would be unacceptable.

In the case of `NCC(=O)[O-].NCC(=O)[O-].[Fe+2]` [FERROCHEL], the “Colour imparted when added to water” value is “imparts relatively quickly a deep rusty yellow color”.
